Consider 27 compounds from ChEMBL document CHEMBL1155907, “Structure-activity relationship of flavonoids as influenza virus neuraminidase inhibitors and their in vitro anti-viral activities” (Bioorg Med Chem, 2008).

The target of data set [1] is T1, Neuraminidase (Influenza A virus, UniProt B4URF0). More on the design: species or system Influenza A virus (A/Puerto Rico/8/1934(H1N1)).
Data set [2] deals with T1, Neuraminidase. More on the design: species or system Influenza B virus.
In data set [3] the target is T1, Neuraminidase.
The next data set concerns Influenza A virus. Kind of data set: Antiviral activity against Influenza A virus Jinan/15/90 H3N2 assessed as reduction of virus-induced cytopathic effect. The class given is functional, organism-based. On the technique in general: Cytopathic effects are the visible damage that an infection or toxin causes in cultured cells.
Data set [4] is described as follows: Cytotoxicity against MDCK cells assessed as maximal non-cytotoxic concentration by MTT assay. The class given is cell-based, Canis lupus familiaris. As to conditions: dog, read-out: MNCC.
The nature of data set [5]: Cytotoxicity against MDCK cells by MTT assay. The class given is cell-based, Canis lupus familiaris. As to conditions: dog. In general terms: Tetrazolium assays rely on reduction of a dye to a coloured formazan, in cell work by metabolically active cells.
A short description of data set [6]: Selectivity index, ratio of CC50 to MDCK cells to IC50 to Influenza A Jinan/15/90 H3N2 virus. The class given is functional.

SMILES strings stand for the structures. A value given as a limit tells only on which side of the number the result lay.

T1 sequence (B4URF0 whole entry): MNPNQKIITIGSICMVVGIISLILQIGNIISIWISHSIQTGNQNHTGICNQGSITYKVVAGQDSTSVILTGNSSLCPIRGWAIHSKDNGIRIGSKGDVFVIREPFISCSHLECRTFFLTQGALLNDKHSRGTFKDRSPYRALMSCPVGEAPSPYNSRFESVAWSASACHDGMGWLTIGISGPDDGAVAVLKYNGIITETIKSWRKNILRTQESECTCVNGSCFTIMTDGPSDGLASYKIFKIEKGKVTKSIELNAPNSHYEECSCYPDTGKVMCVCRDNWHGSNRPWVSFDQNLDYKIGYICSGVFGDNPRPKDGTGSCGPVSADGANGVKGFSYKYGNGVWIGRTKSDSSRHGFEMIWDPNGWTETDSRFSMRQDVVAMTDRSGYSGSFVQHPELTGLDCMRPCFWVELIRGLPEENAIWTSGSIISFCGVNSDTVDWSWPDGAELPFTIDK

As to `O=c1c(O)c(-c2ccc(O)cc2)oc2cc(O)cc(O)c12` [KAEMPFEROL], the results for the IC50 against Neuraminidase [1], against Neuraminidase [2] and on Neuraminidase [3] were 58.6 µM, 46.4 µM and 38.1 µM, respectively.

For `CCC(CC)O[C@@H]1C=C(C(=O)O)C[C@H](N)[C@H]1NC(C)=O` [OSELTAMIVIR CARBOXYLATE], the 50% inhibitory concentration (IC50) in the data set on Influenza A virus was found to be 0.15 µM. For the same compound, in data set [4], the MNTC is 1.02 µM. Besides, the CC50 in data set [5] is 17.1 µM.

`O=c1cc(-c2ccc(O)c(O)c2)oc2cc(O)cc(O)c12` [LUTEOLIN]: in data set [6], the “Ratio CC50/IC50” value is recorded as 1.82. In addition, the IC50 in the data set with Influenza A virus was 6.82 µM; on Neuraminidase [1], 33.7 µM; against Neuraminidase [2], 53.3 µM; against Neuraminidase [3], 32.6 µM. In addition, the MNTC in data set [4] is 7.2 µM. Further, in data set [5], the CC50 stood at 12.4 µM.

With `COc1ccc(-c2coc3cc(O)ccc3c2=O)cc1` [FORMONONETIN], the IC50 on Neuraminidase [1], against Neuraminidase [2] and on Neuraminidase [3] was over 100 µM each time.

On to `O=C1/C(=C/c2ccc(O)c(O)c2)Oc2cc(O)ccc21` [SULFURETIN], for which the IC50 with Influenza A virus is over 9.15 µM; against Neuraminidase [1] it was 29.6 µM; at Neuraminidase [2], 36.2 µM; at Neuraminidase [3] it was 51.2 µM. Moreover, in data set [4], the MNTC amounted to 9.15 µM. The compound further came in with a CC50 in data set [5] of 27.4 µM.

On to `O=c1c(O)c(-c2cc(O)c(O)c(O)c2)oc2cc(O)cc(O)c12` [MYRICETIN], for which the IC50 against Neuraminidase [1] was determined as 82.6 µM; at Neuraminidase [2] it was 75.4 µM; on Neuraminidase [3], 46.2 µM.

In the case of `COc1cc(O)c2c(=O)c(O)c(-c3ccc(O)cc3)oc2c1` [RHAMNOCITRIN], the IC50 turned out to be 51.5 µM against Neuraminidase [1], 62 µM on Neuraminidase [2] and 83.9 µM at Neuraminidase [3].

With `COc1ccc([C@@H]2CC(=O)c3c(O)cc(O[C@@H]4O[C@H](CO[C@@H]5O[C@@H](C)[C@H](O)[C@@H](O)[C@H]5O)[C@@H](O)[C@H](O)[C@H]4O)cc3O2)cc1O` [HESPERIDIN], the IC50 on Neuraminidase [1], on Neuraminidase [2] and against Neuraminidase [3] was over 100 µM throughout.

As to `O=c1cc(-c2ccc(O)c(O)c2)oc2cc(O[C@@H]3O[C@H](CO)[C@@H](O)[C@H](O)[C@H]3O)cc(O)c12` [GALUTEOLIN], the IC50 in the data set on Influenza A virus is over 1120 µM; on Neuraminidase [1], 47.4 µM; against Neuraminidase [2], 58.6 µM; on Neuraminidase [3], 52.2 µM. The MNTC in data set [4] was over 1120 µM. For the same compound, the CC50 in data set [5] was over 1120 µM.

`O=c1cc(-c2ccc(O)cc2)oc2cc(O)cc(O)c12` [APIGENIN]: the “Ratio CC50/IC50” value in data set [6] was found to be 8.35. The IC50 was found to be 4.74 µM in the data set on Influenza A virus, 31.6 µM against Neuraminidase [1], 45.7 µM on Neuraminidase [2] and 28.9 µM at Neuraminidase [3]. The MNTC in data set [4] worked out at 7.63 µM. It took 39.6 µM to reach half-maximal cytotoxicity in data set [5] (CC50).

Turning to `O=c1c(O)c(-c2ccc(O)c(O)c2)oc2cc(O)cc(O)c12` [QUERCETIN], the figures for the IC50 against Neuraminidase [1], against Neuraminidase [2] and at Neuraminidase [3] were 58.4 µM, 67.5 µM and 87.6 µM, respectively.

For the compound `O=c1cc(-c2ccccc2)oc2cc(O)cc(O)c12` [CHRYSIN], the IC50 at Neuraminidase [1] stood at 45.7 µM; against Neuraminidase [2] it was 52.9 µM; at Neuraminidase [3], 33.4 µM.

Take `C[C@@H]1O[C@@H](OC[C@H]2O[C@@H](Oc3c(-c4ccc(O)c(O)c4)oc4cc(O)cc(O)c4c3=O)[C@H](O)[C@@H](O)[C@@H]2O)[C@H](O)[C@H](O)[C@H]1O` [RUTIN]: the IC50 was 52.2 µM against Neuraminidase [1], over 100 µM against Neuraminidase [2] and 87.7 µM against Neuraminidase [3].

As for `NC(=O)c1ncn([C@@H]2O[C@H](CO)[C@@H](O)[C@H]2O)n1` [RIBAVIRIN], in data set [6], the “Ratio CC50/IC50” value is over 19.98. In addition, the IC50 in the data set on Influenza A virus is 25.6 µM. The compound further registered a CC50 in data set [5] of over 512 µM.

Turning to `O=C(O)[C@H]1O[C@@H](Oc2cc3oc(-c4ccc(O)cc4)cc(=O)c3c(O)c2O)[C@H](O)[C@@H](O)[C@@H]1O` [SCUTELLARIN], the IC50 is 50.6 µM against Neuraminidase [1], 59.9 µM against Neuraminidase [2] and 47.3 µM against Neuraminidase [3].

Take `O=c1c(-c2ccc(O)cc2)coc2cc(O)cc(O)c12` [GENISTEIN]: the IC50 at Neuraminidase [1] was 77.1 µM; against Neuraminidase [2], 83.3 µM; on Neuraminidase [3], 134 µM.

Turning to `COc1c(O)cc2oc(-c3ccc(O)cc3)cc(=O)c2c1O` [HISPIDULIN], the “Ratio CC50/IC50” value in data set [6] is listed as 6.98. Moreover, the IC50 in the data set on Influenza A virus worked out at 24.7 µM; on Neuraminidase [1] it was 46.3 µM; against Neuraminidase [2] it was 33.2 µM; at Neuraminidase [3], 26 µM. Besides, the MNTC in data set [4] came out at 24.7 µM. Moreover, in data set [5], the midpoint of cytotoxicity, the CC50, lay at 172 µM.

As for `O=c1c(-c2ccc(O)cc2)coc2cc(O)ccc12` [DAIDZEIN], the IC50 in the data set with Influenza A virus is over 787 µM; on Neuraminidase [1], 37.1 µM; on Neuraminidase [2], 46.8 µM; at Neuraminidase [3], 26.6 µM. In addition, in data set [4], the MNTC is over 787 µM. The compound further gave a CC50 in data set [5] of over 787 µM.

For the compound `O=C1/C(=C\c2ccccc2)Oc2cc(O)ccc21`, the IC50 at Neuraminidase [1] was determined as 72 µM; at Neuraminidase [2], 86.6 µM; on Neuraminidase [3], 73.3 µM.

For the compound `O=C1C[C@@H](c2ccc(O[C@@H]3O[C@H](CO)[C@@H](O)[C@H](O)[C@H]3O)cc2)Oc2cc(O)ccc21` [LIQUIRITIN], the IC50 on Neuraminidase [1], against Neuraminidase [2] and against Neuraminidase [3] was over 100 µM throughout.

For the compound `O=c1cc(-c2ccc(O)cc2)oc2c([C@@H]3O[C@H](CO)[C@@H](O)[C@H](O)[C@H]3O)c(O)cc(O)c12` [VITEXIN], the concentration for half-maximal inhibition (IC50) is 46.5 µM against Neuraminidase [1], 49.6 µM against Neuraminidase [2] and 45.1 µM at Neuraminidase [3].

`O=C1/C(=C\c2ccc(O)cc2)Oc2cc(O)cc(O)c21`: the IC50 is over 741 µM in the data set with Influenza A virus, 25.6 µM at Neuraminidase [1], 25.4 µM on Neuraminidase [2] and 22.3 µM against Neuraminidase [3]. In addition, in data set [4], the MNTC was over 741 µM. Also, the CC50 in data set [5] is over 741 µM.

On to `O=C1/C(=C\c2ccc(O)cc2)Oc2cc(O)ccc21`, for which the “Ratio CC50/IC50” value in data set [6] is 9.64. In addition, the IC50 with Influenza A virus stood at 15.7 µM; on Neuraminidase [1], 22 µM; against Neuraminidase [2] it was 22.9 µM; against Neuraminidase [3], 22.1 µM. The MNTC in data set [4] was found to be 87.5 µM. For the same compound, the CC50 in data set [5] was determined as 152 µM.

Regarding `Oc1cc(O)c2c(c1)O[C@@H](c1ccc(O)c(O)c1)[C@@H](O)C2` [(+)-EPICATECHIN], the concentration for half-maximal inhibition (IC50) at Neuraminidase [1], against Neuraminidase [2] and on Neuraminidase [3] was over 100 µM in each case.

With `Oc1cc(O)c2c(c1)O[C@H](c1ccc(O)c(O)c1)[C@@H](O)C2` [CATECHIN], the IC50 against Neuraminidase [1], on Neuraminidase [2] and on Neuraminidase [3] was over 100 µM throughout.

In the case of `O=c1c(-c2ccc(O[C@@H]3O[C@H](CO)[C@@H](O)[C@H](O)[C@H]3O)cc2)coc2cc(O)cc(O)c12` [SOPHORICOSIDE], the IC50 against Neuraminidase [1], on Neuraminidase [2] and against Neuraminidase [3] was over 100 µM each time.

Consider `O=C1C[C@@H](c2ccc(O)cc2)Oc2cc(O)cc(O)c21` [NARINGENIN], for which the IC50 against Neuraminidase [1], at Neuraminidase [2] and against Neuraminidase [3] was over 100 µM in each case.

A word on the IC50: it is the concentration that gives 50% inhibition. The CC50 is the concentration that lowers cell viability or growth by half. High values mean better tolerance by the cells, low ones harm at low concentration.
